The source of these data is US20150105252A1, “SUBSTITUTED PYRAZOLES AS HERBICIDES” (E I DU PONT DE NEMOURS AND COMPANY, priority 2013, published 2015).

Test [1] relates to crabgrass, large. In words: Test A preemergence. The format is in vivo, Digitaria sanguinalis. The settings on record: preemergence. A digest of the protocol: (§1)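 Pre- and postemergence greenhouse test; loam+sand; cpd in non-phytotox. solvent/surfactant; post at 1–2 leaf, 2–10 cm; visual score ~10 d, 0 = none, 100 = complete control.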
Test [2] deals with crabgrass, large. In words: Test C postemergence. The format is in vivo, Digitaria sanguinalis. The settings on record: for Plant response rating (scale of 0 to 100 where 0 is no effect and 100 is complete control), Crabgrass, Large: Postemergence, 31 g ai/ha, visually evaluated after 13 to 15 days; for Crabgrass, Large plant response rating / Plant response rating, Crabgrass, Large: postemergence; for Crabgrass, Large plant response rating: 62 g ai/ha, scale 0 to 100. From the text:
(§2) Seeds of plant species selected from blackgrass (Alopecurus myosuroides), ryegrass, Italian (Italian ryegrass, Lolium multiflorum), wheat (winter wheat, Triticum aestivum), galium (catchweed bedstraw, Galium aparine), corn (Zea mays), crabgrass, large (large crabgrass, Digitaria sanguinalis), foxtail, giant (giant foxtail, Setaria faberii), johnsongrass (Sorghum halepense), lambsquarters (Chenopodium album), morningglory (Ipomoea coccinea), nutsedge, yellow (yellow nutsedge, Cyperus esculentus), pigweed (redroot pigweed, Amaranthus retroflexus), ragweed (common ragweed, Ambrosia elation), soybean (Glycine max), barnyardgrass (Echinochloa crus-galli), oilseed rape (Brassica napus), waterhemp (common waterhemp, Amaranthus rudis), oat, wild (wild oat, Avena fatua), kochia (Kochia scoparia), Surinam grass (Brachiaria decumbens), foxtail, green (green foxtail, Setaria viridis), goosegrass (Eleusine indica), bromegrass, downy (downy bromegrass, Bromus tectorum), nightshade (eastern black nightshade, Solanum ptycanthum), cocklebur (common cocklebur, Xanthium strumarium), cupgrass, woolly (woolly cupgrass, Eriochloa villosa), bermudagrass (Cynodon dactylon), sunflower, (common oilseed sunflower, Helianthus annuus), Russian thistle (Salsola kali), and velvetleaf (Abutilon theophrasti) were planted into a blend of loam soil and sand and treated preemergence with test chemicals formulated in a non-phytotoxic solvent mixture which included a surfactant.
(§3) At the same time, plants selected from these crop and weed species and also chickweed (common chickweed, Stellaria media), canarygrass (littleseed canarygrass, Phalaris minor), and deadnettle (henbit deadnettle, Lamium amplexicaule), were planted in pots containing Redi-Earth® planting medium (Scotts Company, 14111 Scottslawn Road, Marysville, Ohio 43041) comprising spaghnum peat moss, vermiculite, wetting agent and starter nutrients and treated with postemergence applications of test chemicals formulated in the same manner. Plants ranged in height from 2 to 18 cm (1- to 4-leaf stage) for postemergence treatments. Treated plants and controls were maintained in a greenhouse for 13 to 15 days, after which time all species were compared to controls and visually evaluated. Plant response ratings, summarized in Table C, are based on a scale of 0 to 100 where 0 is no effect and 100 is complete control. A dash (-) response means no test result.

The subject of a further test is rice. The test can be described thus: Test B flood. It counts as in vivo, Oryza sativa. To be noted: 250 g ai/ha, visual rating on 0 to 100 scale (0 no effect, 100 complete control), 13 to 15 days. The method, boiled down:
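Flooded-pot test: compound dosed into 3 cm of standing water above soil when plants had two leaves. Visual control ratings (0–100) versus untreated plants after 13–15 d.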

For another test, the system named is morningglory. In words: Test A postemergence. The format is in vivo, Ipomoea spp. A digest of the protocol: as §1
The subject of test [3] is foxtail, giant. In words: Test A preemergence. The format is in vivo, Setaria faberii. To be noted: preemergence; for Foxtail, Giant plant response rating (0 to 100 scale): visual injury approx. 10 days after treatment. A digest of the protocol: as §1
Test [4] relates to velvetleaf. In words: Test A preemergence. It counts as in vivo, Abutilon theophrasti. The settings on record: preemergence. A digest of the protocol: as §1
Test [5] has as its system velvetleaf. In words: Test C postemergence. It counts as in vivo, Abutilon theophrasti. The settings on record: for Velvetleaf plant response rating / Plant response rating, Velvetleaf: postemergence; for Velvetleaf plant response rating: scale 0 to 100; for Plant response rating, Velvetleaf: 250 g ai/ha, scale 0 to 100 (0 no effect, 100 complete control).
Text: as §2, §3

For the next test, the system named is corn. In words: Test C postemergence. The settings on record: for Plant response rating (scale of 0 to 100 where 0 is no effect and 100 is complete control), Corn: Postemergence, 31 g ai/ha, visually evaluated after 13 to 15 days; for Corn plant response rating / Plant response rating, Corn: postemergence; for Corn plant response rating: 62 g ai/ha, scale 0 to 100. The format is in vivo, Zea mays.
Text: as §2, §3

The subject of test [6] is foxtail, giant. In words: Test A postemergence. The format is in vivo, Setaria faberii. A digest of the protocol:
as §1

The subject of the next test is galium. The test can be described thus: Test C postemergence. It counts as in vivo, Galium aparine. To be noted: for Plant response rating (scale of 0 to 100 where 0 is no effect and 100 is complete control), Galium: Postemergence, 31 g ai/ha, visually evaluated after 13 to 15 days; for Galium plant response rating / Plant response rating, Galium: postemergence; for Galium plant response rating: 62 g ai/ha, scale 0 to 100.
Text: as §2, §3

The next test concerns lambsquarters. The test can be described thus: Test C preemergence. It counts as in vivo, Chenopodium album. The method, boiled down:
(§4)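 Greenhouse pot test: preemergence application onto freshly seeded loam/sand mix, postemergence application onto seedlings (1–4 leaves, 2–18 cm) in peat-vermiculite substrate. Responses scored visually 13 to 15 days later relative to controls, where 0 means no effect and 100 means complete control; a dash indicates no result.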

In the next test the test system is nutsedge, yellow. The test can be described thus: Test C preemergence. It counts as in vivo, Cyperus esculentus. The method, boiled down: as §4
The next test has as its system waterhemp. The test can be described thus: Test C preemergence. It counts as in vivo, Amaranthus rudis. The method, boiled down:
as §4

A further test has as its system barnyardgrass. The test can be described thus: Test C preemergence. It counts as in vivo, Echinochloa crus-galli. To be noted: preemergence. The method, boiled down:
as §4

Setting [7] is: 125 g ai/ha, visual injury, 0 to 100 scale, approx. 10 days.
Setting [8] is: 500 g ai/ha, visual injury after approx. 10 days, 0 to 100 scale (0 no effect, 100 complete control).
Setting [9] is: 250 g ai/ha, scale 0 to 100 (0 no effect, 100 complete control).
[10] abbreviates: 125 g ai/ha, scale 0 to 100, 0 no effect, 100 complete control.
Setting [11] is: Postemergence, 500 g ai/ha, 0 to 100 scale (0 no effect, 100 complete control).
The mark [12] stands for this setting: postemergence, 125 g ai/ha, about 10 days, visual rating on 0 to 100 scale (0 no effect, 100 complete control).
Where [13] appears, read: 125 g ai/ha, visual injury approx. 10 days after treatment.
Setting [14] is: Preemergence, rate head not shown (block before 16 g ai/ha), scale 0 to 100.
The mark [15] stands for this setting: preemergence, 62 g ai/ha, scale 0 to 100 (0 no effect, 100 complete control), 13 to 15 days.
Setting [16] is: preemergence, 125 g ai/ha, 13 to 15 days, scale 0 to 100, 0 = no effect, 100 = complete control.
Where [17] appears, read: preemergence, 250 g ai/ha, scale 0 to 100, 0 is no effect, 100 is complete control.
[18] abbreviates: Postemergence, 125 g ai/ha, 0 to 100 scale, 0 no effect, 100 complete control.

For the compound `CCCc1cc(C(=O)NCC(F)(F)F)nn1Cc1cc(C(F)(F)F)nn1C` [Compound 138], the “Crabgrass, Large plant response rating” value with crabgrass, large [1] (setting [7]) is listed as 100; with crabgrass, large [1] (setting [8]), 100; in the test on crabgrass, large [2] it was 5. In addition, the “Plant response rating (scale of 0 to 100 where 0 is no effect and 100 is complete control), Crabgrass, Large” value in the test with crabgrass, large [2] came to 5. The “Plant response rating, Crabgrass, Large” value is given as 70 in the test with crabgrass, large [2] (setting [9]) and 30 with crabgrass, large [2] (setting [10]). Also, the “Plant response rating, Rice” value with rice is listed as 50. The “Morningglory plant response rating” value was determined as 100 in the test on morningglory (setting [11]) and 80 with morningglory (setting [12]). Further, the “Foxtail, Giant plant response rating” value in the test on foxtail, giant [3] (setting [7]) turned out to be 100; in the test on foxtail, giant [3] (setting [8]) it was 100; in the test with foxtail, giant [6] (setting [11]) it was 100; in the test on foxtail, giant [6] (setting [12]), 100. For the same compound, the “Velvetleaf plant response rating” value in the test with velvetleaf [4] (setting [7]) turned out to be 100; in the test with velvetleaf [4] (setting [8]) it was 100; in the test with velvetleaf [5] (62 g ai/ha), 40; with velvetleaf [5] it was 25. Also, the “Plant response rating (scale of 0 to 100 where 0 is no effect and 100 is complete control), Velvetleaf” value with velvetleaf [5] (Postemergence, 31 g ai/ha, visually evaluated after 13 to 15 days) was 30. Besides, in the test with velvetleaf [5], the “Plant response rating, Velvetleaf” value is recorded as 50. Besides, the “Plant response rating (scale of 0 to 100 where 0 is no effect and 100 is complete control), Corn” value in the test with corn is on record as 15. Moreover, the “Corn plant response rating” value in the test with corn is listed as 15. Besides, the “Plant response rating, Corn” value is 30 in the test on corn (setting [9]) and 15 in the test with corn (setting [10]). Moreover, in the test on galium, the “Plant response rating (scale of 0 to 100 where 0 is no effect and 100 is complete control), Galium” value was 65. Further, in the test on galium, the “Galium plant response rating” value is 70. The figures for the “Plant response rating, Galium” value in the test on galium (setting [9]) and with galium (setting [10]) were 80 and 75, respectively.
Consider `CCc1cc(C(=O)NCC(F)(F)F)nn1Cc1cc(OC(F)F)nn1C` [Compound 206], for which the “Plant response rating (scale of 0 to 100 where 0 is no effect and 100 is complete control), Crabgrass, Large” value with crabgrass, large [2] turned out to be 5. The “Crabgrass, Large plant response rating” value in the test with crabgrass, large [2] amounted to 5. Also, the “Plant response rating, Crabgrass, Large” value with crabgrass, large [2] (setting [9]) amounted to 5; with crabgrass, large [2] (setting [10]), 5. In the test with rice, the “Plant response rating, Rice” value stood at 0. In addition, the “Foxtail, Giant plant response rating (0 to 100 scale)” value with foxtail, giant [3] (125 g ai/ha) turned out to be 0. The “Foxtail, Giant plant response rating” value is listed as 100 in the test on foxtail, giant [3] (setting [8]); 80 with foxtail, giant [6] (setting [11]); 0 in the test on foxtail, giant [6] (setting [12]). Besides, the “Plant response rating, Velvetleaf” value with velvetleaf [5] came to 10. For the same compound, the “Velvetleaf plant response rating” value with velvetleaf [5] worked out at 10. Besides, the “Plant response rating (scale of 0 to 100 where 0 is no effect and 100 is complete control), Corn” value with corn is recorded as 5. For the same compound, in the test with corn, the “Corn plant response rating” value amounted to 5. Moreover, the “Plant response rating, Corn” value in the test on corn (setting [9]) and in the test on corn (setting [10]) was 5 throughout. Also, the “Plant response rating (scale of 0 to 100 where 0 is no effect and 100 is complete control), Galium” value in the test on galium worked out at 30. For the same compound, the “Galium plant response rating” value in the test with galium is on record as 30. Further, the “Plant response rating, Galium” value worked out at 45 with galium (setting [9]) and 60 in the test with galium (setting [10]).
Take `CCc1cc(C(=O)NC2CC2)nn1Cc1cc(C(F)(F)C(F)(F)F)nn1C` [Compound 226]: the “Crabgrass, Large plant response rating (0 to 100 scale)” value in the test with crabgrass, large [1] (setting [13]) worked out at 100. Moreover, the “Crabgrass, Large plant response rating” value with crabgrass, large [1] (setting [8]) turned out to be 100. Moreover, the “Plant response rating, Lambsquarters” value in the test on lambsquarters (setting [14]) and with lambsquarters (setting [16]) was 100 each time. The “Lambsquarters plant response rating” value in the test on lambsquarters (setting [15]) and with lambsquarters (setting [17]) was 100 each time. Also, the “Plant response rating, Rice” value with rice is 30. Also, the “Plant response rating, Nutsedge, Yellow” value in the test on nutsedge, yellow (setting [14]) turned out to be 0; in the test on nutsedge, yellow (setting [16]) it was 5. Besides, the “Nutsedge, Yellow plant response rating” value in the test on nutsedge, yellow (setting [15]) stood at 5; with nutsedge, yellow (setting [17]), 20. Also, the “Morningglory plant response rating” value amounted to 70 in the test on morningglory (setting [18]) and 100 with morningglory (setting [11]). The “Foxtail, Giant plant response rating (0 to 100 scale)” value with foxtail, giant [3] (125 g ai/ha) is 100. Besides, the “Foxtail, Giant plant response rating” value is reported as 100 in the test with foxtail, giant [3] (setting [8]); 80 in the test with foxtail, giant [6] (setting [18]); 90 with foxtail, giant [6] (setting [11]). Besides, the “Plant response rating, Waterhemp” value in the test on waterhemp (setting [14]) and in the test on waterhemp (setting [16]) was 100 each time. The “Waterhemp plant response rating” value with waterhemp (setting [15]) and with waterhemp (setting [17]) was 100 throughout. In addition, the “Velvetleaf plant response rating (0 to 100 scale)” value in the test on velvetleaf [4] (setting [13]) is on record as 60. Moreover, the “Barnyardgrass plant response rating” value was 10 in the test on barnyardgrass (31 g ai/ha, visual rating, scale 0 to 100 (0 no effect, 100 complete control), 13 to 15 days); 65 in the test on barnyardgrass (62 g ai/ha, scale 0 to 100 (0 no effect, 100 complete control), 13 to 15 days); 100 in the test on barnyardgrass (250 g ai/ha, scale 0 to 100, 0 is no effect, 100 is complete control). Also, the “Plant response rating, Barnyardgrass” value in the test with barnyardgrass (125 g ai/ha, 13 to 15 days, scale 0 to 100, 0 = no effect, 100 = complete control) is recorded as 95.
